For series [1], the target named is T1, Alpha-1D adrenergic receptor (Homo sapiens, UniProt P25100). Also: in other assays of this panel Not Active means under 50% inhibition at 10 µM.
T1 sequence (P25100 whole entry): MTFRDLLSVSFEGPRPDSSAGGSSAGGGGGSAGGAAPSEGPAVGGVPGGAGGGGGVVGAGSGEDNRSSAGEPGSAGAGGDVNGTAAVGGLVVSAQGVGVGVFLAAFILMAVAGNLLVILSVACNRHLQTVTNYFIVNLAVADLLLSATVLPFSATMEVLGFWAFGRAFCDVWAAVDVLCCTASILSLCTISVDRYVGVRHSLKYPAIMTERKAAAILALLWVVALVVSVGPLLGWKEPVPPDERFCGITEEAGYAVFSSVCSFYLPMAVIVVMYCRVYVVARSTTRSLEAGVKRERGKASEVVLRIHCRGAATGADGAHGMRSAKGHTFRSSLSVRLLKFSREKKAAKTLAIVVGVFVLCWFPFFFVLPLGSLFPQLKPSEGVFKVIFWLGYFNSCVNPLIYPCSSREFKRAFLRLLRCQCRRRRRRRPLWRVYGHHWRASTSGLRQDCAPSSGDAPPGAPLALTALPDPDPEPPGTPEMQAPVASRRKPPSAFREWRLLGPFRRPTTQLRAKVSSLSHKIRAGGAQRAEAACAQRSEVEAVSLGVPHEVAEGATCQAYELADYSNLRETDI
It counts as cell membranes, HEK293, Membrane. As to conditions: hek293.

The target of series [2] is Sodium-dependent noradrenaline transporter (Homo sapiens, UniProt P23975). As to the kind of experiment: DRUGMATRIX: Norepinephrine Transporter radioligand binding (ligand: [125I] RTI-55). It counts as cell membranes, MDCK, Membrane. As to conditions: Not Active = under 50% inhibition at 10 µM.
Chain of Sodium-dependent noradrenaline transporter (P23975 whole entry): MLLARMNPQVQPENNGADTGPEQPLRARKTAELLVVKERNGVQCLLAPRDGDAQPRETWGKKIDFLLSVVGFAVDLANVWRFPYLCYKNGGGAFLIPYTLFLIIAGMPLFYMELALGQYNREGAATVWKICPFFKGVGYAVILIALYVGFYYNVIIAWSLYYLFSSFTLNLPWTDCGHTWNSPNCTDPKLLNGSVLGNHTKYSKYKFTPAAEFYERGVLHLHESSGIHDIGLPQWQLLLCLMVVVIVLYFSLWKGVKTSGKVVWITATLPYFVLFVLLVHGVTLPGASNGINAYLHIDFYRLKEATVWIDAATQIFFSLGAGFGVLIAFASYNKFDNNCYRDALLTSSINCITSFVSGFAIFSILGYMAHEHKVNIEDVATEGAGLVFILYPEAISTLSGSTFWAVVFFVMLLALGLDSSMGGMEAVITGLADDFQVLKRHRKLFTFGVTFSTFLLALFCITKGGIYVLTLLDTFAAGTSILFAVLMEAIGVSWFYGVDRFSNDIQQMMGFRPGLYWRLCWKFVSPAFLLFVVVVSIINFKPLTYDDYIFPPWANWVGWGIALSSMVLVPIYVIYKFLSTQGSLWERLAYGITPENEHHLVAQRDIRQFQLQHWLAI
Series [3] in a line: DRUGMATRIX: Tumor Necrosis Factor (TNF), Non-Selective radioligand binding (ligand: [125I] TNF-alpha). It counts as cell membranes, Membrane. As to conditions: u-937; Not Active = under 50% inhibition at 10 µM.
The target in series [4] is T2, Cholecystokinin receptor type A (Homo sapiens, UniProt P32238). Also: in other assays of this panel Not Active means under 50% inhibition at 10 µM.
T2 sequence (P32238 whole entry): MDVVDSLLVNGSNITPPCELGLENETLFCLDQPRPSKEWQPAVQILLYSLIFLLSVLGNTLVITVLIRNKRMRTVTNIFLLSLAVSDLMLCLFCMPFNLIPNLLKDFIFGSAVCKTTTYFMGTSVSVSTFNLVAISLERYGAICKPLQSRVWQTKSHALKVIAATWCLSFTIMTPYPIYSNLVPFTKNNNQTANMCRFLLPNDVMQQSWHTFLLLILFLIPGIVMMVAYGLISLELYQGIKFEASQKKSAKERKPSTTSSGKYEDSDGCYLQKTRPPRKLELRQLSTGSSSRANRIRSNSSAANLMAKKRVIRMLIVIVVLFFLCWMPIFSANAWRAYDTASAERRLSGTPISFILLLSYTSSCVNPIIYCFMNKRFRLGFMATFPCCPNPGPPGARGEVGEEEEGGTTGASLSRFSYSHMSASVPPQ
The format is cell membranes, Membrane. The settings on record: 1321-n1.

A further series has as its target D(1A) dopamine receptor (Homo sapiens, UniProt P21728). Description: DRUGMATRIX: Dopamine D1 radioligand binding (ligand: [3H] SCH-23390). It counts as cell membranes, Membrane. As to conditions: cho; Not Active = under 50% inhibition at 10 µM.
A short description of series [5]: DRUGMATRIX: Glutamate, NMDA, Agonism radioligand binding (ligand: [3H] CGP-39653). The format is cell membranes, Rattus norvegicus, Wistar, Cerebral cortex, Membrane. As to conditions: Not Active = under 50% inhibition at 10 µM.
The target in the next series is Histamine H2 receptor (Homo sapiens, UniProt P25021). The format is cell membranes, CHO-K1, Membrane. Also: in other assays of this panel Not Active means under 50% inhibition at 10 µM.
Chain of Histamine H2 receptor (P25021 whole entry): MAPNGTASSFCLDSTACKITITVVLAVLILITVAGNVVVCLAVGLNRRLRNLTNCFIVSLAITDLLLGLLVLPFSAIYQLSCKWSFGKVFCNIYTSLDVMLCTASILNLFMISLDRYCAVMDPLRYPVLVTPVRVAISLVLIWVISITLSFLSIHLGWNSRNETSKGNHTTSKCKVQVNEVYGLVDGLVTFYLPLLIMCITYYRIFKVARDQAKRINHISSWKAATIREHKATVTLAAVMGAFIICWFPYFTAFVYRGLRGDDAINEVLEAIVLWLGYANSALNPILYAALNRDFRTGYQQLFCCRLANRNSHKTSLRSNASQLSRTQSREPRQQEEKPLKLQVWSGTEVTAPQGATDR
Series [6] has as its target Platelet-activating factor receptor (Homo sapiens, UniProt P25105). The format is tissue-based. Also: in other assays of this panel Not Active means under 50% inhibition at 10 µM.
A further series has as its target T3, Cytochrome P450 1A2 (Homo sapiens, UniProt P05177). Also: in other assays of this panel Not Active means under 50% inhibition at 10 µM.
T3 sequence (P05177 whole entry): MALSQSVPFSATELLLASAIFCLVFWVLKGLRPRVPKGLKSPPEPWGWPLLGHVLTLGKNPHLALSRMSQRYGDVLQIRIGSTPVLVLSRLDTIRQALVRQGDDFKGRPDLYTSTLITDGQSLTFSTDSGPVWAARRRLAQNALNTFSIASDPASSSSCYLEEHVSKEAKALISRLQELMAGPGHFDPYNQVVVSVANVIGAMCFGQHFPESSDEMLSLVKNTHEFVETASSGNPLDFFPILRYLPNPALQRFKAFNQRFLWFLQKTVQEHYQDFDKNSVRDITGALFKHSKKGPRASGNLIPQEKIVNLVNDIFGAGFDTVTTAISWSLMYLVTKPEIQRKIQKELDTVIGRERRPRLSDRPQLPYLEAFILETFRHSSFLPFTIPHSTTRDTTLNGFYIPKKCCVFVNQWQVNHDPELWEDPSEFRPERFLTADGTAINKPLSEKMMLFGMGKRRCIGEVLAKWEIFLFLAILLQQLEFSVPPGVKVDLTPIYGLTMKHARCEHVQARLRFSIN
The settings on record: bti-tn-5b1-4.

Series [7] has as its target Voltage-gated inwardly rectifying potassium channel KCNH2 (Homo sapiens, UniProt Q12809). As to conditions: hek293. Also: in other assays of this panel Not Active means under 50% inhibition at 10 µM.

Each structure is given as a SMILES string.

The IC50 is the point on the concentration scale where inhibition reaches its midpoint. The Ki is the dissociation constant of the complex between target and ligand, obtained from inhibition or displacement.

Chain of Voltage-gated inwardly rectifying potassium channel KCNH2 (Q12809 whole entry): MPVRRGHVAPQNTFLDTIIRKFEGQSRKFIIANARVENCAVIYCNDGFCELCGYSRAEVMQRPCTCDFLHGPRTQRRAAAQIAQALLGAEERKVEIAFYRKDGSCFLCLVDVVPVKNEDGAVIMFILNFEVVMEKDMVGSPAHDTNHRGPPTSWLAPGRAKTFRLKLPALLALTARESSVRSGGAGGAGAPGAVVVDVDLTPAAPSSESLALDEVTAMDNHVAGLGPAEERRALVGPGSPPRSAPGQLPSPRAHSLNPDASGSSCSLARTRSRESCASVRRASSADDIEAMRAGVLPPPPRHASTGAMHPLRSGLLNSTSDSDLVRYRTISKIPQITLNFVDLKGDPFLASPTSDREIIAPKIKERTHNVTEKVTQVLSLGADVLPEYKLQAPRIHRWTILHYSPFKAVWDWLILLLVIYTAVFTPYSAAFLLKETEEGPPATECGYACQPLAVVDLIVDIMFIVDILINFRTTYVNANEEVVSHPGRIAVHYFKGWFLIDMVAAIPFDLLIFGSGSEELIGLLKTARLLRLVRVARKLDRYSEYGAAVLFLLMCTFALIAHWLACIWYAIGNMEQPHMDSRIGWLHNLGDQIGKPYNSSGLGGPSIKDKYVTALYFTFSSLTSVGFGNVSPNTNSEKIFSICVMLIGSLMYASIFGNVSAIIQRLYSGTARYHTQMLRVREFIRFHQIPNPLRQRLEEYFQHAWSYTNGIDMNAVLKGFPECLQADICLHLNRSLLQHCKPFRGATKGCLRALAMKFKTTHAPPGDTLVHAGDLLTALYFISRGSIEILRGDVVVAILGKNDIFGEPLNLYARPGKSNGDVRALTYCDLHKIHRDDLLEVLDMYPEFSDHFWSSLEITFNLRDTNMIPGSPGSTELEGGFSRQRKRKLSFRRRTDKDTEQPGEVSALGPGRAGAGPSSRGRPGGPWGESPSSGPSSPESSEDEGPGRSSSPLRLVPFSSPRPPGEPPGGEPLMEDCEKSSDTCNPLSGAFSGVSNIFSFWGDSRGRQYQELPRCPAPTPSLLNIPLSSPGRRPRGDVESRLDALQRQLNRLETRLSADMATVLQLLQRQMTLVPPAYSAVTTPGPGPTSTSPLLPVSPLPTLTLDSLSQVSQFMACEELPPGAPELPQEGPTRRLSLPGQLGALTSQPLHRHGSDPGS
Chain of D(1A) dopamine receptor (P21728 whole entry): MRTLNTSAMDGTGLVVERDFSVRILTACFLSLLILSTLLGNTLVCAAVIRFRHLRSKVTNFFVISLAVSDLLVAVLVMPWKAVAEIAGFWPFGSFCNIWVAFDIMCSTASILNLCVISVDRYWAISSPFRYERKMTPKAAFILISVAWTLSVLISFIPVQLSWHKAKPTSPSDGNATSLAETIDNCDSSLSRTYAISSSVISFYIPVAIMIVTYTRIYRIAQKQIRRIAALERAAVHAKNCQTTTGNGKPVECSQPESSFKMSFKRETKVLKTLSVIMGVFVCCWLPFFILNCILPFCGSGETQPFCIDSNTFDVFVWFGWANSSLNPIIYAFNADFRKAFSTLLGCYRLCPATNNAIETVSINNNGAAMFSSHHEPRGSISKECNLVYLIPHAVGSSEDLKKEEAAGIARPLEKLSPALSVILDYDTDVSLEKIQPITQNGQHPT
Chain of Platelet-activating factor receptor (P25105 whole entry): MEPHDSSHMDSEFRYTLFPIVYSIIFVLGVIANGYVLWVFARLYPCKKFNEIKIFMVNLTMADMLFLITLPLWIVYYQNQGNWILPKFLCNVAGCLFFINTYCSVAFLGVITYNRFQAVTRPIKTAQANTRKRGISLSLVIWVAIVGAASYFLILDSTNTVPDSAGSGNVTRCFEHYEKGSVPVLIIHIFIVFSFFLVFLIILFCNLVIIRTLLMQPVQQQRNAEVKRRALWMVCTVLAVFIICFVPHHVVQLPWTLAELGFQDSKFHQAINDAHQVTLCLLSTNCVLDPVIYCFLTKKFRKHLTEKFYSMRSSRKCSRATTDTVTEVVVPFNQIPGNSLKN

Consider `CC1=C(CC(=O)O)c2cc(F)ccc2/C1=C\c1ccc([S+](C)[O-])cc1` (stereo unspecified), for which the IC50 result (in series [1]; in series [2] (mdck); in series [3]; in [4]; on D(1A) dopamine receptor; in series [5]) was “Not Active” each time. In addition, the concentration for half-maximal inhibition (IC50) entry (at Histamine H2 receptor (cho-k1); in series [6]; at Cytochrome P450 1A2; in series [7]) was “Not Active” throughout. The Ki result (in [3]; in series [5]; on Cytochrome P450 1A2; in series [7]) was “Not Active” throughout.
As to `N[C@H](CSC(=S)NCc1ccccc1)C(=O)O`, the IC50 entry (in series [1]; in series [2] (mdck); in series [3]; in series [4]; on D(1A) dopamine receptor; in series [5]) was “Not Active” in each case. Further, the IC50 entry (at Histamine H2 receptor (cho-k1); in series [6]; against Cytochrome P450 1A2; in series [7]) was “Not Active” each time. In addition, the Ki entry (in series [3]; in series [5]; at Cytochrome P450 1A2; in [7]) was “Not Active” throughout.
For `CC(=O)N1CCN(c2ccc(OCC3COC(Cn4ccnc4)(c4ccc(Cl)cc4Cl)O3)cc2)CC1` (stereo unspecified) [KETOCONAZOLE], the IC50 result was “Not Active” in [1]; 24.2 µM in [2] (read-out: IC50); “Not Active” in series [3]; “Not Active” in series [4]; “Not Active” at D(1A) dopamine receptor; “Not Active” in [5]. In addition, the IC50 was 21.9 µM at Histamine H2 receptor (read-out: IC50), “Not Active” in [6] and “Not Active” on Cytochrome P450 1A2. Further, the Ki in series [2] (read-out: Ki) is 24 µM; in [3], “Not Active”; in [5] it was “Not Active”; on Histamine H2 receptor (read-out: Ki) it was 21.5 µM; at Cytochrome P450 1A2 it was “Not Active”.
With `COCCOC(=O)C1=C(C)NC(C)=C(C(=O)OC(C)C)C1c1cccc([N+](=O)[O-])c1` (stereo unspecified) [NIMODIPINE], the IC50 result (in [1]; in series [2] (mdck); in series [3]; in series [4]; on D(1A) dopamine receptor; in series [5]) was “Not Active” in each case. Also, the IC50 entry (against Histamine H2 receptor (cho-k1); in series [6]; in series [7]) was “Not Active” in each case. Besides, the Ki result in [3], in series [5] and in [7] was “Not Active” in each case.
As for `CC(C)c1nc(CN(C)C(=O)N[C@H](C(=O)N[C@@H](Cc2ccccc2)C[C@H](O)[C@H](Cc2ccccc2)NC(=O)OCc2cncs2)C(C)C)cs1` [RITONAVIR], the IC50 entry (in series [1]; in series [2] (mdck); in series [3]; in [4]; at D(1A) dopamine receptor; in [5]) was “Not Active” in each case. The IC50 result (on Histamine H2 receptor (cho-k1); in [6]) was “Not Active” throughout. Moreover, the Ki entry in [3] and in series [5] was “Not Active” throughout.
With `C[C@@H](N)[C@H]1CC[C@H](C(=O)Nc2ccncc2)CC1` [Y-27632], the IC50 result (in series [1]; in series [2] (mdck); in series [3]; in series [4]; at D(1A) dopamine receptor; in series [5]) was “Not Active” each time. For the same molecule, the IC50 entry (on Histamine H2 receptor (cho-k1); in [6]; on Cytochrome P450 1A2) was “Not Active” throughout. In addition, the Ki result (in series [3]; in [5]; at Cytochrome P450 1A2) was “Not Active” each time.

Values taken from ChEMBL document CHEMBL1909046, “DrugMatrix in vitro pharmacology data”.
